The source of these data is patent publication US11040056B2, “Benzimidazoles that enhance the activity of oligonucleotides” (The University of North Carolina at Chapel Hill, priority 2018, dated 2021).

Series [1] is described as follows: In vivo toxicity parameters (cardiac blood samples).
Procedure: All animal procedures were conducted in compliance with guidelines of the UNC Laboratory Animal Medicine Department and with federal guidelines. […] (20, 32) EGFP654 mice were administered 35 mg/kg of SSO623 or mismatched oligonucleotide in buffer by intraperitoneal injection on two consecutive days. One day later, mice received either 5 mg/kg of UNC2383 in a 1:1 DMSO/PEG400 solution or only the diluent, via intraperitoneal injection. […] After 24 h, the second cohort was euthanized and tissue and cardiac blood samples were obtained. […] (31) Blood samples were analyzed by the UNC Animal Clinical Chemistry Core facility.
For series [2], the system named is CFTR channel activity in human bronchial epithelial cells (HBEC) from a 3849+10 kbC-T homozygous patient. The series can be described thus: Ussing chamber analysis of CFTR function in 3849+10 kbC-T HBEC. It counts as cell-based. The source says:
FIG. 11. CFTR activity restored to CF splicing mutation 3849+10 kbC-T using SSOs. SSOs were delivered in vitro by electroporation (˜100% efficiency), CF primary cells were differentiated on permeable supports and tested. Panel A. PCR analysis. The lower band is the correctly spliced CFTR. Panel B. Functional correction by Ussing chamber analysis.
FIG. 12. OEC Mediated Delivery of a SSO in 3849+10 kbC-T HBEC. Well-differentiated human bronchial epithelial cells (HBEC) derived from a 3849+10 kbC-T homozygous patient were incubated with corrective (LNA) SSO A from FIG. 1 (1 uM, overnight). Cells were then incubated with OEC UNC2383 in the luminal or serosal bath (4 uM, 2 hs). Both the SSO and OEC were added in cell growing medium. Seventy two hour later, HBEC were analyzed in Ussing chamber for CFTR function. Orkambi® was tested in parallel inserts.
Results: In vitro studies were performed in well-differentiated HBEC cells derived from a homozygous 3849+10 kbC→T CF patient (CF HBEC) treated with one dose of a specific SSO (1 uM, 12 hs) followed by one dose of OEC (apical or basolateral delivery, 2-4 uM, 2-3 hs). A significant increase of forskolin-stimulated CFTR activity in Ussing chamber analyses was observed 24-96 hs after SSO+OEC treatment compared to SSO alone treatment or vehicle. OEC was efficacious delivered apically as well as basolaterally. Transepithelial resistance and microscopy tests were implemented to monitor cytotoxicity, which was negligible for both SSO and OEC (FIG. 12). In vivo studies were performed in a transgenic mouse model that has a SSO-inducible EGFP reporter.
SSOs (100 nM) were introduced in airway epithelial cells derived from a 3849+10 kbC-T homozygous CF patient in suspension by electroporation using the Neon system, program A4. Cells were differentiated for 2 weeks in culture on human collagen-coated permeable supports (Millipore) before being tested in Ussing chambers following methods described in Kreda et al. […] “Characterization of Wild-Type and ΔF508 Cystic Fibrosis Transmembrane Regulator in Human Respiratory Epithelia” Mol. Biol. Cell 16(5):2154-2167 (100 uM Amiloride, Amil; 10 uM Forskolin, Fsk; 20 uM CFTR inhibitor 172). After Ussing chamber analysis, cells were lysed and assayed for RT-PCR as described in Wang et al 2017 (FIG. 11).
(SEQ ID NO:2), C (5′+G*mA*mG*mU*+C*mU*mU**mU*mA*+C*mU*mC*mA*mC*mC*+A*mU*mU*mU) (SEQ ID NO:3) (Locked Nucleic Acid (LNA)=+, PS=*, 2′OMe=m). In SSO sequences A, B, and C the underlined bases indicate oligo bases that match up to the bases in the mutated splice site in the 3849+10 kb C-T CFTR splicing mutation. MM623 or SSO623 sequences are described herein. […]

Setting [3] is: 24 h after administration, means +/− SE, N = 4.

Turning to `O=C(Nc1nc2ccccc2n1CCN1CCCC1)c1cc2cc(Cl)ccc2o1` [UNC2383], the toxicity in vivo entry in series [1] (5 mg/kg i.p.) is listed as “limited toxicity”. Moreover, in series [1] (setting [3]), the ALT is on record as 106 +/− 32 U/L, the AST is on record as 76 +/− 15 U/L, the BUN came to 20 ± 4 mg/dL and the Hb is 11.8 ± 0.4 g/dL. In addition, the Platelets in series [1] (setting [3]) was 711 +/− 85 × 10^3/ul. Further, the “CFTR channel activity / functional correction” value in series [2] (SSO A 1 uM overnight, OEC 4 uM 2 hs luminal or serosal, 72 h, approved drugs in parallel) is recorded as “significant enhancement”. For the same compound, in series [2] (in vitro), the “oligonucleotide enhancing activity in human airway epithelial cells” value was “negligible activity”.
